Consider 1 substance from patent publication US7338777B2, “Method for determining the biological activity of defibrotide” (Gentium SPA, priority 2001, dated 2008).

For the assay, the target named is T1, human plasmin (Homo sapiens, UniProt P00747).
T1 construct: precursors of plasmin, such as plasminogen
The assay is described as follows: indirect enzymatic determination: release of pNA from chromogenic substrate S-2251 by plasmin in the presence of defibrotide. Format: biochemical. The protocol: 150 μl of each of the standard defibrotide solutions described above are taken and introduced into the wells of the microplates.
The plasmin solution is then prepared rapidly by adding, at 0° C., 3.8 ml of TRIS-HCl buffer to the test tube containing 0.2 ml of human plasmin solution. The whole is agitated gently until dissolution has occurred, and 50 μl are taken and introduced into the wells of the microplate, followed by 50 μl of S-2251 for each well.
The microplate, placed in the MRX TCII reader set at 37° C., is agitated for approximately 10 seconds; the absorbance readings are carried out at 405 nm, at the initial time t0 and subsequently every two minutes in the interval from 10 to 20 minutes, in accordance with the enzymatic kinetics program.
The microplate, placed in the MRX TCII reader set at 37° C., is agitated for approximately 10 seconds; the absorbance readings are taken at 405 nm, at the initial time t0 and subsequently every 5 minutes for a period from the 20th to the 50th minute, in accordance with the enzymatic kinetics program.
The absorbance values measured are then processed (Excel and Sigma Plot programs), tabulated and represented in a graph (regression lines).
In addition, considering the data reported in Table 1, 2 and 3, we have also calculated the μM/min of p-Nitroaniline released by plasmin acting on the chromogenic substrate in the presence of Defibrotide.
The “b” values reported in Tables 1, 2 and 3, namely the slopes of the kinetics curves, represent the ΔAbs/min×1000 (usually, just to avoid numbers with commas, the scale for the spectrophotometric readings in FIGS. 3, 4 and 5 was multiplied by 1000; as a consequence, the real spectrophotometric absorbance reading is obtained dividing “b” by 1,000).
Knowing from the literature, the Molar Extinction Coefficient for p-Nitroaniline (8,270 M^−1cm^−1, corresponding to 0.008270 Unit of Absorbance per μM of p-Nitroaniline) it follows that: 1μM p-Nitroaniline: 0.008270 (Absorbance)=X μM p-Nitroaniline: Spectrophotometric Reading (“b”/1000)
In this way we have calculated the micromoles of p-Nitroaniline released in the previous experiments, whose value are reported in table 4.

Setting [1] is: Mean±Standard Deviation of 5 replications, X = concentration of defibrotide (μg/ml).
Where [2] appears, read: Replication 2, X = concentration of defibrotide (μg/ml).
Setting [3] is: Replication 3, X = concentration of defibrotide (μg/ml).
Setting [4] is: Replication 4, X = concentration of defibrotide (μg/ml).
The mark [5] stands for this setting: Replication 5, X = concentration of defibrotide (μg/ml).

T1 sequence (P00747 97-580 limits assumed): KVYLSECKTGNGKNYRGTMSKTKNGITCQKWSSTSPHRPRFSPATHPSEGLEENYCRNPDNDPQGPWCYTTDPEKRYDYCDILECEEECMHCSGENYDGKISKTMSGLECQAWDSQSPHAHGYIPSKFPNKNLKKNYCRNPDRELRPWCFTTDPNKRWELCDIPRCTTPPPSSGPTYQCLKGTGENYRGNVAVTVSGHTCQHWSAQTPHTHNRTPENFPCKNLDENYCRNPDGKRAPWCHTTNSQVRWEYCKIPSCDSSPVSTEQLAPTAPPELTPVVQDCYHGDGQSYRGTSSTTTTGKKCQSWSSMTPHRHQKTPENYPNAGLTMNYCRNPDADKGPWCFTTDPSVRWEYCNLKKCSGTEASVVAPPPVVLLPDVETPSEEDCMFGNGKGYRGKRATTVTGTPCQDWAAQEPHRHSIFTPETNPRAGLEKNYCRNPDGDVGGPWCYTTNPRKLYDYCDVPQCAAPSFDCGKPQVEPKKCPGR
T1 sequence (P00747 581-810 limits assumed): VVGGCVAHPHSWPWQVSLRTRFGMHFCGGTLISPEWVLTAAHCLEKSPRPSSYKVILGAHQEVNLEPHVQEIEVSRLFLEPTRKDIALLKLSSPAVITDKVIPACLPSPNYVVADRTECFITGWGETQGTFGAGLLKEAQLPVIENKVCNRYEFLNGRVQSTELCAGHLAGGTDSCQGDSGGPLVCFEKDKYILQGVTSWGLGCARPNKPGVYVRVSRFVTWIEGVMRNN

Regarding Defibrotide, the “a of pNA(μM/min)=a+blog X” value under setting [1] was 0.6908±0.0291 μM/min. Moreover, the “b of pNA(μM/min)=a+blog X” value under setting [1] came out at 0.3140±0.0437. The “slope b of regression μM/min p-Nitroaniline = a + b log X” value is, setting by setting: (Replication 1, X = concentration of defibrotide (μg/ml)) 0.3820; under setting [2], 0.2907; under setting [3], 0.2741; under setting [4], 0.2907; under setting [5], 0.3323. The “intercept a of regression μM/min p-Nitroaniline = a + b log X” value by setting is: (Replication 1, X = concentration of defibrotide (μg/ml), 37° C., 405 nm) 0.7317 μM/min; under setting [2], 0.6625 μM/min; under setting [3], 0.6708 μM/min; under setting [4], 0.6792 μM/min; under setting [5], 0.7100 μM/min. In addition, where the note is “plasmin-evaluation tests with substrate A1-A2-A3-X”, the “effect on rate of release of compound X (pNA) by plasmin from its substrate” value is given as “increases the rate of release of compound X proportionally to its concentration”.
